Reference: US11345712B2, “Protein-targeting compounds and pharmaceutical compositions thereof, and their therapeutic applications” (BioTheryX, Inc., priority 2019, dated 2022)

Tested on: MOLM-13 cells
Assay: MOLM-13 cell viability assay (CellTiter-Glo)
Assay type: cell-based
Conditions: Homo sapiens, MOLM-13, 72 h, 3 days, concentration of 1 μM, read-out: Antiproliferative Activity (inhibition, MOLM-13 cell viability)
How it was run: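 MOLM-13 AML cells in RPMI 1640 with 10% FBS, seeded at 2,500 cells/well and exposed to compound or DMSO for 3 days at 37° C, 5% CO2. Viability read as CellTiter-Glo luminescence after 10 min shaking.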

Row | Structure (SMILES) | cytotoxicity at 1 µM [%]
1 | Cc1ccc(C(=O)C(=O)NCc2scc3c2CN(C2CCC(=O)NC2=O)C3=O)cc1 (centres unmarked) [Compound I-17, 2-(4-methylphenyl)-N-((5-(2,6-dioxopiperidin-3-yl)-4-oxo-5,6-dihydro-4H-thieno[3,4-c]pyrrol-1-yl)methyl)-2-oxoacetamide] | < 25
2 | Cc1cc(C(C)(C)C)cc(C)c1C(=O)C(=O)NCc1ccc2c(c1)CN(C1CCC(=O)NC1=O)C2=O (centres unmarked) [Compound I-104, 2-(4-(tert-butyl)-2,6-dimethylphenyl)-N-((2-(2,6-dioxopiperidin-3-yl)-1-oxoisoindolin-5-yl)methyl)-2-oxoacetamide] | > 80
3 | Cc1ccc(NC(=O)NCc2cc3c(s2)C(=O)N(C2CCC(=O)NC2=O)C3)cc1O (centres unmarked) [II-46, 1-((5-(2,6-dioxopiperidin-3-yl)-6-oxo-5,6-dihydro-4H-thieno[2,3-c]pyrrol-2-yl)methyl)-3-(3-hydroxy-4-methylphenyl)urea] | 25 to 50
4 | O=C1CCC(N2Cc3c(CNC(=O)C(=O)c4ccccc4F)cccc3C2=O)C(=O)N1 (centres unmarked) [Compound I-82, 2-(2-fluorophenyl)-N-((2-(2,6-dioxopiperidin-3-yl)-1-oxoisoindolin-4-yl)methyl)-2-oxoacetamide] | 25 to 50
5 | Cc1ccc(CNC(=O)NCc2cc3c(s2)CN(C2CCC(=O)NC2=O)C3=O)cc1Cl (centres unmarked) [II-21, 1-(3-chloro-4-methylbenzyl)-3-((5-(2,6-dioxopiperidin-3-yl)-4-oxo-5,6-dihydro-4H-thieno[2,3-c]pyrrol-2-yl)methyl)urea] | 50 to 80
6 | CN(C)c1ccc(CCCC(=O)NCc2scc3c2CN(C2CCC(=O)NC2=O)C3=O)cc1 (centres unmarked) [II-85, 4-(4-(dimethylamino)phenyl)-N-((5-(2,6-dioxopiperidin-3-yl)-4-oxo-5,6-dihydro-4H-thieno[3,4-c]pyrrol-1-yl)methyl)butanamide] | < 25
7 | O=C1CCC(N2Cc3c(csc3CNC(=O)C(=O)c3ccc(Cl)c(Cl)c3)C2=O)C(=O)N1 (centres unmarked) [Compound I-24, 2-(3,4-dichlorophenyl)-N-((5-(2,6-dioxopiperidin-3-yl)-4-oxo-5,6-dihydro-4H-thieno[3,4-c]pyrrol-1-yl)methyl)-2-oxoacetamide] | 25 to 50
8 | CCc1ccc(NC(=O)NCc2cc3c(s2)C(=O)N(C2CCC(=O)NC2=O)C3)cc1N(C)C (centres unmarked) [II-96, 1-(3-(dimethylamino)-4-ethylphenyl)-3-((5-(2,6-dioxopiperidin-3-yl)-6-oxo-5,6-dihydro-4H-thieno[2,3-c]pyrrol-2-yl)methyl)urea] | > 80
9 | Cc1ccc(C(N)C(=O)NCc2scc3c2CN(C2CCC(=O)NC2=O)C3=O)cc1 (centres unmarked) [II-88, 2-amino-N-((5-(2,6-dioxopiperidin-3-yl)-4-oxo-5,6-dihydro-4H-thieno[3,4-c]pyrrol-1-yl)methyl)-2-(p-tolyl)acetamide] | < 25
10 | CC(C)(C)c1ccc(CC(=O)NCc2scc3c2CN(C2CCC(=O)NC2=O)C3=O)cc1 (centres unmarked) [II-62, 2-(4-(tert-butyl)phenyl)-N-((5-(2,6-dioxopiperidin-3-yl)-4-oxo-5,6-dihydro-4H-thieno[3,4-c]pyrrol-1-yl)methyl)acetamide] | 25 to 50
11 | O=C1CCC(N2Cc3c(CNC(=O)C(=O)c4ccccc4)cccc3C2=O)C(=O)N1 (centres unmarked) [Compound I-74, N-((2-(2,6-dioxopiperidin-3-yl)-1-oxoisoindolin-4-yl)methyl)-2-oxo-2-phenylacetamide] | < 25
12 | Cc1cc(C(C)(C)C)cc(C)c1C(=O)C(=O)NCc1cccc2c1CN(C1CCC(=O)NC1=O)C2=O (centres unmarked) [Compound I-105, 2-(4-(tert-butyl)-2,6-dimethylphenyl)-N-((2-(2,6-dioxopiperidin-3-yl)-1-oxoisoindolin-4-yl)methyl)-2-oxoacetamide] | < 25
13 | CN(C)c1ccc(CC(=O)NCc2scc3c2CN(C2CCC(=O)NC2=O)C3=O)cc1 (centres unmarked) [II-61, 2-(4-(dimethylamino)phenyl)-N-((5-(2,6-dioxopiperidin-3-yl)-4-oxo-5,6-dihydro-4H-thieno[3,4-c]pyrrol-1-yl)methyl)acetamide] | < 25
14 | O=C(Cc1ccc(N2CCCC2)cc1)NCc1scc2c1CN(C1CCC(=O)NC1=O)C2=O (centres unmarked) [II-93, N-((5-(2,6-dioxopiperidin-3-yl)-4-oxo-5,6-dihydro-4H-thieno[3,4-c]pyrrol-1-yl)methyl)-2-(4-(pyrrolidin-1-yl)phenyl)acetamide] | < 25
15 | Cc1ccc(C(=O)C(=O)NCc2cccc3c2CN(C2CCC(=O)NC2=O)C3=O)cc1 (centres unmarked) [Compound I-72, N-((2-(2,6-dioxopiperidin-3-yl)-1-oxoisoindolin-4-yl)methyl)-2-oxo-2-(p-tolyl)acetamide] | < 25
16 | CC(C)(C)c1cccc(C(=O)C(=O)NCc2cccc3c2CN(C2CCC(=O)NC2=O)C3=O)c1 (centres unmarked) [Compound I-46, 2-(3-(tert-butyl)phenyl)-N-((2-(2,6-dioxopiperidin-3-yl)-1-oxoisoindolin-4-yl)methyl)-2-oxoacetamide] | 25 to 50

Row | Structure (SMILES) | cytotoxicity at 1 µM [%]
17 | NC(C(=O)NCc1scc2c1CN(C1CCC(=O)NC1=O)C2=O)c1ccc(O)cc1 (centres unmarked) [II-113, 2-amino-N-((5-(2,6-dioxopiperidin-3-yl)-4-oxo-5,6-dihydro-4H-thieno[3,4-c]pyrrol-1-yl)methyl)-2-(4-hydroxyphenyl)acetamide] | < 25
18 | O=C1CCC(N2Cc3c(CNC(=O)C(=O)c4ccc(C5(C(F)(F)F)CC5)cc4)cccc3C2=O)C(=O)N1 (centres unmarked) [Compound I-30, N-((2-(2,6-dioxopiperidin-3-yl)-1-oxoisoindolin-4-yl)methyl)-2-oxo-2-(4-(1-(trifluoromethyl)cyclopropyl)phenyl)acetamide] | > 80
19 | O=C1CCC(N2Cc3c(csc3CNC(=O)C(=O)c3ccc(F)cc3)C2=O)C(=O)N1 (centres unmarked) [Compound I-22, 2-(4-fluorophenyl)-N-((5-(2,6-dioxopiperidin-3-yl)-4-oxo-5,6-dihydro-4H-thieno[3,4-c]pyrrol-1-yl)methyl)-2-oxoacetamide] | < 25
20 | Cc1ccc(NC(=O)NCc2cc3c(s2)C(=O)N([C@H]2CCC(=O)NC2=O)C3)cc1Cl [II-90, (S)-1-(3-chloro-4-methylphenyl)-3-((5-(2,6-dioxopiperidin-3-yl)-6-oxo-5,6-dihydro-4H-thieno[2,3-c]pyrrol-2-yl)methyl)urea] | > 80
21 | CC(C)(C)c1ccc(C(=O)C(=O)Nc2cccc3c2CN(C2CCC(=O)NC2=O)C3=O)cc1 (centres unmarked) [Compound I-56, 2-(4-(tert-butyl)phenyl)-N-(2-(2,6-dioxopiperidin-3-yl)-1-oxoisoindolin-4-yl)-2-oxoacetamide] | < 25
22 | Cc1ccc(CC(=O)NCc2scc3c2CN(C2CCC(=O)NC2=O)C3=O)cc1Cl (centres unmarked) [II-24, 2-(3-chloro-4-methylphenyl)-N-((5-(2,6-dioxopiperidin-3-yl)-4-oxo-5,6-dihydro-4H-thieno[3,4-c]pyrrol-1-yl)methyl)acetamide] | < 25
23 | CC(C)c1cc(NC(=O)NCc2cc3c(s2)C(=O)N(C2CCC(=O)NC2=O)C3)cc(N(C)C)c1 (centres unmarked) [II-60, 1-(3-(dimethylamino)-5-isopropylphenyl)-3-((5-(2,6-dioxopiperidin-3-yl)-6-oxo-5,6-dihydro-4H-thieno[2,3-c]pyrrol-2-yl)methyl)urea] | > 80
24 | COc1ccc(C(=O)C(=O)NCc2cccc3c2CN(C2CCC(=O)NC2=O)C3=O)cc1 (centres unmarked) [Compound I-78, 2-(4-methoxyphenyl)-N-((2-(2,6-dioxopiperidin-3-yl)-1-oxoisoindolin-4-yl)methyl)-2-oxoacetamide] | 25 to 50
25 | Cc1ccc(C(F)(F)C(=O)NCc2scc3c2CN(C2CCC(=O)NC2=O)C3=O)cc1Cl (centres unmarked) [II-28, 2-(3-chloro-4-methylphenyl)-N-((5-(2,6-dioxopiperidin-3-yl)-4-oxo-5,6-dihydro-4H-thieno[3,4-c]pyrrol-1-yl)methyl)-2,2-difluoroacetamide] | < 25
26 | Cc1ccc(NC(=S)NCc2cc3c(s2)C(=O)N(C2CCC(=O)NC2=O)C3)cc1Cl (centres unmarked) [II-39, 1-(3-chloro-4-methylphenyl)-3-((5-(2,6-dioxopiperidin-3-yl)-6-oxo-5,6-dihydro-4H-thieno[2,3-c]pyrrol-2-yl)methyl)thiourea] | > 80
27 | CC(C)[C@@H](N)C(=O)OCN1C(=O)CCC(N2Cc3c(CNC(=O)C(=O)c4ccc(C(C)(C)C)cc4)cccc3C2=O)C1=O (stereo partly drawn) [Compound I-49, (2R)-(3-(4-((2-(4-(tert-butyl)phenyl)-2-oxoacetamido)methyl)-1-oxoisoindolin-2-yl)-2,6-dioxopiperidin-1-yl)methyl 2-amino-3-methylbutanoate] | 50 to 80
28 | Cc1cc(C(=O)C(=O)NCc2scc3c2CN(C2CCC(=O)NC2=O)C3=O)ccc1C(C)(C)C (centres unmarked) [Compound I-27, 2-(3-methyl-4-(tert-butyl)phenyl)-N-((5-(2,6-dioxopiperidin-3-yl)-4-oxo-5,6-dihydro-4H-thieno[3,4-c]pyrrol-1-yl)methyl)-2-oxoacetamide] | > 80
29 | O=C1CCC(N2Cc3c(csc3CNC(=O)Nc3c(Cl)cccc3Cl)C2=O)C(=O)N1 (centres unmarked) [II-43, 1-(2,6-dichlorophenyl)-3-((5-(2,6-dioxopiperidin-3-yl)-4-oxo-5,6-dihydro-4H-thieno[3,4-c]pyrrol-1-yl)methyl)urea] | 25 to 50
30 | Cc1ccc(NCCCNCc2scc3c2CN(C2CCC(=O)NC2=O)C3=O)cc1Cl (centres unmarked) [II-23, 3-(1-(((3-((3-chloro-4-methylphenyl)amino)propyl)amino)methyl)-4-oxo-4H-thieno[3,4-c]pyrrol-5(6H)-yl)piperidine-2,6-dione] | < 25
31 | Cc1cnc(NC(=O)NCc2scc3c2CN(C2CCC(=O)NC2=O)C3=O)nc1C(F)(F)F (centres unmarked) [II-40, 1-((5-(2,6-dioxopiperidin-3-yl)-4-oxo-5,6-dihydro-4H-thieno[3,4-c]pyrrol-1-yl)methyl)-3-(5-methyl-4-(trifluoromethyl)pyrimidin-2-yl)urea] | < 25
32 | CC(C)(C)c1ccc(C(F)(F)C(=O)NCc2scc3c2CN(C2CCC(=O)NC2=O)C3=O)cc1 (centres unmarked) [II-129, 2-(4-(tert-butyl)phenyl)-N-((5-(2,6-dioxopiperidin-3-yl)-4-oxo-5,6-dihydro-4H-thieno[3,4-c]pyrrol-1-yl)methyl)-2,2-difluoroacetamide] | < 25
